We go through 24 compounds from ChEMBL document CHEMBL1143906, “TIE-2/VEGF-R2 SAR and in vitro activity of C3-acyl dihydroindazolo[5,4-a]pyrrolo[3,4-c]carbazole analogs” (Bioorg Med Chem Lett, 2008).

In data set [1] the target is Vascular endothelial growth factor receptor 2 (Homo sapiens, UniProt P35968). In words: Inhibition of VEGFR2.
The target in data set [2] is T1, Angiopoietin-1 receptor (Homo sapiens, UniProt Q02763). In words: Inhibition of TIE2.
Data set [3] deals with Vascular endothelial growth factor receptor 2 (Mus musculus, UniProt P35918). Briefly: Inhibition of mouse VEGFR2 autophosphorylation in NIH3T3 cell.
Data set [4] can be described thus: AUC in rat. It is filed as ADME, organism-based. Conditions: plasma.
A short description of data set [5]: Clearance in rat at 1 mg/kg, iv. Format: ADME, organism-based. Set-up: dose 1 mg/kg, route intravenous. The conditions noted are these: in vivo.
Data set [6] has as its target T1, Angiopoietin-1 receptor. In words: Inhibition of TIE2 at 1000 nM.
Data set [7] addresses T1, Angiopoietin-1 receptor. In words: Inhibition of TIE2 at 300 nM.
Data set [8] in a line: Aqueous solubility at pH 2.0. It is filed as physicochemical. The conditions noted are these: aqueous medium.
Data set [9] is described as follows: AUC (0 to t) in rat at 5 mg/kg, po. It is filed as ADME, organism-based. Further details: dose 5 mg/kg, route oral. Conditions: plasma.
Data set [10] is described as follows: Cmax in rat at 5 mg/kg, po. Format: ADME, organism-based. Set-up: dose 5 mg/kg, route oral. The conditions noted are these: in vivo.
Data set [11] has as its system HUVEC. Briefly: Inhibition of angiopoietin 1-induced chemotaxis of HUVEC cells. The conditions noted are these: Homo sapiens. It is filed as functional, cell-based.
Data set [12] is described as follows: Volume of distribution in rat at 1 mg/kg, iv. Format: ADME, organism-based. Further details: dose 1 mg/kg, route intravenous. The conditions noted are these: in vivo.
A short description of data set [13]: AUC (0 to t) in rat at 1 mg/kg, iv. Further details: dose 1 mg/kg, route intravenous. It is filed as ADME, organism-based. Conditions: plasma.
Data set [14] is described as follows: Tmax in rat at 5 mg/kg, po. The conditions noted are these: in vivo. Set-up: dose 5 mg/kg, route oral. It is filed as ADME, organism-based.
Data set [15] concerns HUVEC. In words: Cytotoxicity against human HUVEC cells. It is filed as cell-based.
A short description of data set [16]: Half life in rat at 1 mg/kg, iv. Further details: dose 1 mg/kg, route intravenous. Conditions: in vivo. Format: ADME, organism-based.
Data set [17] in a line: Aqueous solubility at pH 7.4. It is filed as physicochemical. Conditions: aqueous medium.
The nature of data set [18]: Bioavailability in rat at 5 mg/kg, po. The conditions noted are these: in vivo. It is filed as ADME, organism-based.
Data set [19] has as its system Aorta. In words: Toxicity in rat aortic ring. It is filed as tissue-based.
Data set [20] relates to Aorta. In words: Ex vivo antiangiogenic activity in rat aortic ring explant assessed as inhibition of microvessel growth after 8 days. Conditions: 192 h. Format: functional, tissue-based.
Data set [21] in a line: AUC (0 to infinity) in rat at 5 mg/kg, po. It is filed as ADME, organism-based. Set-up: time infinity, dose 5 mg/kg, route oral. Conditions: plasma.
Data set [22] is described as follows: AUC (0 to infinity) in rat at 1 mg/kg, iv. It is filed as ADME, organism-based. Set-up: time infinity, dose 1 mg/kg, route intravenous. The conditions noted are these: plasma.

As a reminder, the IC50 is the concentration at which inhibition is half-maximal. As a reminder, the AUC is the area under the concentration-time curve, a measure of exposure. For orientation: clearance means a measure of how efficiently the substance is removed, as volume per time. Usually inhibition stands for the drop in the measured response relative to a control, in per cent. High values mean a strong effect, low ones a weak effect. One may read the solubility as the concentration that dissolves in the medium under given conditions. High values mean a readily soluble substance, low ones a poorly soluble substance. As usually defined, the AUC(0-t) is exposure summed from dosing to a finite time, without extrapolation to infinity. A low value points to low exposure. By Cmax is commonly meant the maximum level reached in the sampled fluid or tissue. As a reminder, the Vd is a proportionality between amount in the body and measured concentration, not a real space. As a reminder, the Tmax is the time at which the peak concentration occurs. One may read the half-life as the time in which the quantity being followed falls by half. Low readings indicate rapid decline, high ones slow decline. The term bioavailability denotes the share of a dose that reaches the circulation, judged against a reference dose that is usually intravenous. As usually defined, the EC50 is the concentration giving half of the maximal effect. In general, AUC(0-inf) refers to total exposure, with the tail of the curve extrapolated. A higher AUC(0-inf) goes with high exposure.

Vascular endothelial growth factor receptor 2 (Mus musculus, UniProt P35918), sequence (P35918 whole entry): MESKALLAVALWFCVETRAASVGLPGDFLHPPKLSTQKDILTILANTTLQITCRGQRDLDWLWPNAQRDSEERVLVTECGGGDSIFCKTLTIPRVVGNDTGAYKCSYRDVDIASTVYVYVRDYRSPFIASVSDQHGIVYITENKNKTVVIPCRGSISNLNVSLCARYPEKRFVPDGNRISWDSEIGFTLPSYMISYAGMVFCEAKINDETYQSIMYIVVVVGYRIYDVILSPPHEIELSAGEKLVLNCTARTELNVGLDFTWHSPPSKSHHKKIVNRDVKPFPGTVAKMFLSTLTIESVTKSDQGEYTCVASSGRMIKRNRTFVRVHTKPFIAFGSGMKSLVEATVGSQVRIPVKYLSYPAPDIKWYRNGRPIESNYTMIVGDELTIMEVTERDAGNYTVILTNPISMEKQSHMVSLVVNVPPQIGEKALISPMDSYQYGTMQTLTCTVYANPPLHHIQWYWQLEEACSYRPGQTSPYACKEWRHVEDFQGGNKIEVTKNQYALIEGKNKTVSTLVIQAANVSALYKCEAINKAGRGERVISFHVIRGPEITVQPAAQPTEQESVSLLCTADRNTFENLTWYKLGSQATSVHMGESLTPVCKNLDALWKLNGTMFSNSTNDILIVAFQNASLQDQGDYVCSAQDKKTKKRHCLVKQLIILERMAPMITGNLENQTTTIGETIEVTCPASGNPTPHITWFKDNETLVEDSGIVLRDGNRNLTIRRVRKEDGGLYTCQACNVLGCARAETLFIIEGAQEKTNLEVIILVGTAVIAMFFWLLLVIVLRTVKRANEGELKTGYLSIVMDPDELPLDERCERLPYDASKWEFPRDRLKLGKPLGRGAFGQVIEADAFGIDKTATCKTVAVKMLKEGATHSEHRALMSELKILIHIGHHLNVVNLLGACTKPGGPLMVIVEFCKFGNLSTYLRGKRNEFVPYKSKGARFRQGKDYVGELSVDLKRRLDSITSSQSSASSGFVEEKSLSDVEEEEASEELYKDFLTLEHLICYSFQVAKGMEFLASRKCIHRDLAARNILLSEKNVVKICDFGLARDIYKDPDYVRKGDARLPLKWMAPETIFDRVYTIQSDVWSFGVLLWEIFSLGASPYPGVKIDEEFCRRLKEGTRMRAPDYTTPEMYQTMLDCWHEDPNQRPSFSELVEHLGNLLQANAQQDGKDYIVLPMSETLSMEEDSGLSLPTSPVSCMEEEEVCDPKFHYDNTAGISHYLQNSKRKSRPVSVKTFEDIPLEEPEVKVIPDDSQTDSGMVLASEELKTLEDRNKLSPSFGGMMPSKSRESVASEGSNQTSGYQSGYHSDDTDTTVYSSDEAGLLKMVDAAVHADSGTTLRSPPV
Vascular endothelial growth factor receptor 2 (Homo sapiens, UniProt P35968), sequence (P35968 whole entry): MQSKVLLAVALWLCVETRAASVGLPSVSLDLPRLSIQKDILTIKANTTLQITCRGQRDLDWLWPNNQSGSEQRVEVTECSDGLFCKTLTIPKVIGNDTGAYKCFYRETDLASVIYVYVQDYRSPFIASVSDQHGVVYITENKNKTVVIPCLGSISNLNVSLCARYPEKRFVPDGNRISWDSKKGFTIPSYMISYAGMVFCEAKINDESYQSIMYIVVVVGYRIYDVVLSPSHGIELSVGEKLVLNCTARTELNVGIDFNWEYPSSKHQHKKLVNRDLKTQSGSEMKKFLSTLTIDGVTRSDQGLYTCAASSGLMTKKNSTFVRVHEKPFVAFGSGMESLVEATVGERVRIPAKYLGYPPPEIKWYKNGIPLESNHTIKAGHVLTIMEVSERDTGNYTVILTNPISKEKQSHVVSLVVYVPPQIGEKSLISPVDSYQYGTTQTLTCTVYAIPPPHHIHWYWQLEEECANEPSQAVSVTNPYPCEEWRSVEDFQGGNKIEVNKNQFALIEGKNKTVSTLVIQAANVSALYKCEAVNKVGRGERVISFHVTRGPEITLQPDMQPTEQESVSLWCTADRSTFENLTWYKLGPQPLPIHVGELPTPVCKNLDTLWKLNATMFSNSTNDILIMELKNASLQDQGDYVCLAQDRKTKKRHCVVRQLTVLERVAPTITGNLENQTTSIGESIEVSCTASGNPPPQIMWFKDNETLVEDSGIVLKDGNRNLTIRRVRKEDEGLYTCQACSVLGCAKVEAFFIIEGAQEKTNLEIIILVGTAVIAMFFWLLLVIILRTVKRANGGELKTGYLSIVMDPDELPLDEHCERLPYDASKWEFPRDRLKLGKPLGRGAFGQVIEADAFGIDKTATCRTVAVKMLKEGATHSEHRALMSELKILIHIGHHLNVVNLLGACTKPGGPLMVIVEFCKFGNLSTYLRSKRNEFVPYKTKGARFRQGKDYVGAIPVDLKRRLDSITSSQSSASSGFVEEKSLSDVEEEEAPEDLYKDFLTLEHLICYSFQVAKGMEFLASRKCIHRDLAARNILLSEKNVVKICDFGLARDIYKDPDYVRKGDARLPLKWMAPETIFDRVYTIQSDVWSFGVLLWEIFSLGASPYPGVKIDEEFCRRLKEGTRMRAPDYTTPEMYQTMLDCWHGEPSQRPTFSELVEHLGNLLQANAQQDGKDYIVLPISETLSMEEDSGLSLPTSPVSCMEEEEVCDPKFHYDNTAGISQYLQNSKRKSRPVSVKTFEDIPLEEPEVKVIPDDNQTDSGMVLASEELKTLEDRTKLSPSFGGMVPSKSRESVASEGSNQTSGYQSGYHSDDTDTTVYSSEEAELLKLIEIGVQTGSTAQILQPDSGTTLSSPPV
T1 sequence (Q02763 whole entry): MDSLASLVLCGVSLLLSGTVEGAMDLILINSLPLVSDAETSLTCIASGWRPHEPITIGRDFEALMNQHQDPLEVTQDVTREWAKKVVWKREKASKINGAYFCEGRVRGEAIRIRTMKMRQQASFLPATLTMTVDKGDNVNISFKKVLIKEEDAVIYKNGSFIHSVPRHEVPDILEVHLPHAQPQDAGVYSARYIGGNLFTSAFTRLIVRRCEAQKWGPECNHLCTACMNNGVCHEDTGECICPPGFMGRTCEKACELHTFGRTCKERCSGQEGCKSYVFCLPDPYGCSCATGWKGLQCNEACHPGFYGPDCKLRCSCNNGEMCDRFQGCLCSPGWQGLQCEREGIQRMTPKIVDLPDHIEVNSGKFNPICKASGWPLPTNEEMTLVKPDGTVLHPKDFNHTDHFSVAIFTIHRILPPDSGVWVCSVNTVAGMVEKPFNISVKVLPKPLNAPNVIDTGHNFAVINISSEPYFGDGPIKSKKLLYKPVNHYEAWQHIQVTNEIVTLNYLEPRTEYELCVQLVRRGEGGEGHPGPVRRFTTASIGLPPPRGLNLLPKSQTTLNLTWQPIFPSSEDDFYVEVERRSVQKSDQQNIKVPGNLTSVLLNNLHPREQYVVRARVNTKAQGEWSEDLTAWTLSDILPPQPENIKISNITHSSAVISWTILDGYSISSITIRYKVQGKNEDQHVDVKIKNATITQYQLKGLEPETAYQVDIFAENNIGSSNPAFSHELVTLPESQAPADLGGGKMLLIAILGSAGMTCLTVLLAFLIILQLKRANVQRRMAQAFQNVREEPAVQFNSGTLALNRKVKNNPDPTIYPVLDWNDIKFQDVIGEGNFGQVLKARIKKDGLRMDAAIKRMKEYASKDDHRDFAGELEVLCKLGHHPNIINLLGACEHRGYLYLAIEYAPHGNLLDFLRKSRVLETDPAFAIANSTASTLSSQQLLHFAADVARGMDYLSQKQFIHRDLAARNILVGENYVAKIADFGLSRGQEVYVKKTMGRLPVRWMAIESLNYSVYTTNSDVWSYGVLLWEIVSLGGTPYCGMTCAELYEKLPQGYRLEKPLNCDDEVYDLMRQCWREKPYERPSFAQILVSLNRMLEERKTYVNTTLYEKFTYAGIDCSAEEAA

Regarding `CC(=O)c1ccc2c(c1)c1c3c(c4c(c1n2C)CCc1nn(C)cc1-4)C(=O)NC3`, the half-maximal inhibitory concentration (IC50) in data set [1] was 10 nM; in data set [2], more than 10000 nM.

As to `Cn1cc2c(n1)CCc1c-2c2c(c3c1[nH]c1ccc(C(=O)c4cccs4)cc13)CNC2=O`, the values for the IC50 in data set [1] and in data set [2] were 2 nM and 136 nM, respectively.

Consider `CC(=O)c1ccc2c(c1)c1c3c(c4c(c1n2C(C)C)CCc1nn(C)cc1-4)C(=O)NC3`, for which the half-inhibitory concentration (IC50) in data set [1] was determined as 75 nM; in data set [2] it was 726 nM.

As for `CCn1c2ccc(C(=O)c3cccs3)cc2c2c3c(c4c(c21)CCc1nn(C)cc1-4)C(=O)NC3`, the IC50 amounted to 1 nM in [1] and 43 nM in data set [2].

Regarding `CCCn1c2ccc(C(=O)c3cccs3)cc2c2c3c(c4c(c21)CCc1nn(C)cc1-4)C(=O)NC3`, the IC50 was 5 nM in data set [1] and 26 nM in [2].

Consider `Cc1ccsc1C(=O)c1ccc2c(c1)c1c3c(c4c(c1n2CC(C)C)CCc1nn(C)cc1-4)C(=O)NC3`, for which the concentration for half-maximal inhibition (IC50) was less than 10 nM in data set [3], 10 nM in data set [1] and 5 nM in data set [2]. Moreover, in [4], the exposure (AUC) is 261 ng·h/mL. In [5], the clearance was 72 mL/min/kg.

Consider `CCn1c2ccccc2c2c3c(c4c(c21)CCc1nn(C)cc1-4)C(=O)NC3`, for which the values for the IC50 in [1] and in [2] were 15 nM and 1100 nM, respectively.

Regarding `CC(C)Cn1c2ccc(C(=O)c3ccco3)cc2c2c3c(c4c(c21)CCc1nn(C)cc1-4)C(=O)NC3`, the IC50 in data set [1] turned out to be 4 nM; in data set [2], 72 nM.

In the case of `CCn1c2ccc(C(C)=O)cc2c2c3c(c4c(c21)CCc1nn(C)cc1-4)C(=O)NC3`, the half-maximal inhibitory concentration (IC50) in [1] worked out at 13 nM; in data set [2] it was 1000 nM. In [6], this compound had an inhibition of 50%.

On to `Cn1cc2c(n1)CCc1c-2c2c(c3c1[nH]c1ccccc13)CNC2=O`, for which the half-maximal inhibitory concentration (IC50) in data set [1] is 16 nM; in [2], 1360 nM.

With `CC(=O)c1ccc2c(c1)c1c3c(c4c(c1n2CC(C)C)CCc1nn(C)cc1-4)C(=O)NC3`, the IC50 in data set [1] was found to be 21 nM; in [2], 83 nM.

Regarding `CCCCn1c2ccc(C(C)=O)cc2c2c3c(c4c(c21)CCc1nn(C)cc1-4)C(=O)NC3`, the IC50 is 26 nM in [1] and 300 nM in data set [2]. The compound further displayed an inhibition in data set [7] of 50%.

In the case of `CC(C)Cn1c2ccc(C(=O)c3ccsc3)cc2c2c3c(c4c(c21)CCc1nn(C)cc1-4)C(=O)NC3`, the IC50 in data set [1] amounted to 13 nM; in [2], 63 nM.

As to `CC(C)Cn1c2ccccc2c2c3c(c4c(c21)CCc1nn(C)cc1-4)C(=O)NC3`, the IC50 in data set [1] came to 17 nM; in data set [2], 372 nM.

For `CC(=O)c1ccc2[nH]c3c4c(c5c(c3c2c1)CNC5=O)-c1cn(C)nc1CC4`, the results for the IC50 in data set [1] and in data set [2] were 35 nM and more than 1000 nM, respectively. For the same compound, the inhibition in data set [6] turned out to be 28%.

In the case of `Cc1csc(C(=O)c2ccc3c(c2)c2c4c(c5c(c2n3CC(C)C)CCc2nn(C)cc2-5)C(=O)NC4)c1`, the half-maximal inhibitory concentration (IC50) in [3] was more than 50 nM; in [1], 11 nM; in data set [2], 43 nM.

Take `CC(C)Cn1c2ccc(C(=O)c3ccoc3)cc2c2c3c(c4c(c21)CCc1nn(C)cc1-4)C(=O)NC3`: the IC50 in data set [1] turned out to be 8 nM; in data set [2], 58 nM.

Turning to `CC(C)n1c2ccc(C(=O)c3cccs3)cc2c2c3c(c4c(c21)CCc1nn(C)cc1-4)C(=O)NC3`, the IC50 amounted to 15 nM in data set [1] and 24 nM in [2].

Turning to `CCCn1c2ccc(C(C)=O)cc2c2c3c(c4c(c21)CCc1nn(C)cc1-4)C(=O)NC3`, the IC50 came out at 3 nM in data set [1] and 272 nM in data set [2].

With `CCCn1c2ccccc2c2c3c(c4c(c21)CCc1nn(C)cc1-4)C(=O)NC3`, the half-maximal inhibitory concentration (IC50) in data set [1] is 16 nM; in data set [2] it was 136 nM.

With `CC(C)Cn1c2ccc(C(=O)c3sccc3Br)cc2c2c3c(c4c(c21)CCc1nn(C)cc1-4)C(=O)NC3`, the IC50 in data set [3] was less than 10 nM; in data set [1] it was 25 nM; in [2] it was 15 nM. Also, the exposure (AUC) in data set [4] came out at 123 ng·h/mL. Besides, in data set [5], the clearance is 138 mL/min/kg.

`CC(C)OCc1ccc2c(c1)c1c3c(c4c(c1n2CCCOC(=O)CN(C)C)Cc1ccccc1-4)C(=O)NC3` [CEP-7055]: the half-inhibitory concentration (IC50) in [1] was found to be 16 nM; in data set [2], 1360 nM.

Consider `CC(C)Cn1c2ccc(C(=O)c3cccs3)cc2c2c3c(c4c(c21)CCc1nn(C)cc1-4)C(=O)NC3`, for which the solubility in [8] and in [17] was less than 1 µg/mL in each case. The AUC(0-t) in [9] worked out at 2820 ng·h/mL; in data set [13] it was 5680 ng·h/mL. In addition, the results for the concentration for half-maximal inhibition (IC50) in data set [3], in data set [1] and in data set [2] were 10 nM, 6 nM and 20 nM, respectively. In [10], this compound gave a maximum concentration (Cmax) of 638 ng/mL. In addition, the Activity entry was “Dose-dependent effect” in data set [11], “Non-toxic” in data set [15] and “Non-toxic” in data set [19]. In data set [12], the Vd is 0.52 L/kg. In addition, the Tmax in [14] came out at 4 h. In data set [5], the clearance was determined as 2.36 mL/min/kg. Besides, the half-life in data set [16] was 2.32 h. In [18], this compound showed a bioavailability of 12%. Further, the concentration giving a half-maximal response (EC50) in data set [20] stood at 20 nM. Further, the AUC(0-inf) was determined as 4130 ng·h/mL in data set [21] and 6650 ng·h/mL in data set [22].

For `CC(C)Cn1c2ccc(C(=O)c3sccc3Cl)cc2c2c3c(c4c(c21)CCc1nn(C)cc1-4)C(=O)NC3`, the solubility in data set [8] and in [17] was less than 1 µg/mL throughout. Also, the figures for the AUC(0-t) in data set [9] and in data set [13] were 3330 ng·h/mL and 1440 ng·h/mL, respectively. Moreover, the values for the IC50 in data set [3], in data set [1] and in [2] were 10 nM, 7 nM and 13 nM, respectively. In [10], the highest level (Cmax) was 842 ng/mL. In addition, the Activity result in data set [11] was “Dose-dependent effect”; in data set [15] it was “Non-toxic”; in [19] it was “Non-toxic”. This compound had a Vd in data set [12] of 1.4 L/kg. Also, the time to peak (Tmax) in [14] stood at 3.33 h. Besides, the clearance in data set [5] stood at 12 mL/min/kg. The half-life in [16] is 1.35 h. In data set [18], the bioavailability is 69%. Further, the 50% effective concentration (EC50) in [20] turned out to be 20 nM. In addition, the AUC(0-inf) in [21] is 5140 ng·h/mL; in [22] it was 1490 ng·h/mL.
